# System: IFNα-Induced STAT Phosphorylation
# Experiment: IFNα-Induced STAT Phosphorylation in Human Whole Blood
# Assay type: cell-based
# Conditions: 1 h compound incubation, 1000 U/mL recombinant human IFNα A/D for 15 min, pSTAT5 in CD3 positive population, read-out: LE Human WB IFNα-Induced Stat Phosph. (IC50)
# From the text: IFNα-Induced STAT Phosphorylation in Human Whole Blood
# The amount of pSTAT5 expression was quantitated by median fluorescence intensity after gating on the CD3 positive population.
row,SMILES,IC50 [nM]
1,"[2H]C([2H])([2H])NC(=O)c1nnc(Nc2ccccn2)cc1Nc1nccc(-c2ncn(C)n2)c1OC [Example 2, 4-{[3-methoxy-4-(1-methyl-1H-1,2,4-triazol-3-yl)pyridin-2-yl]amino}-N—(^2H3)methyl-6-[(pyridin-2-yl)amino]pyridazine-3-carboxamide]",50
2,[2H]C([2H])([2H])NC(=O)c1nnc(Nc2ccccn2)cc1Nc1nccc(-c2ncn(C)n2)c1OC [Example 28],270

# Same assay, conditions: Homo sapiens, 1 h compound incubation, 1000 U/mL recombinant human IFNα A/D for 15 min, pSTAT5 in CD3 positive population, read-out: LE Human WB IFNα-Induced Stat Phosph. (IC50)
row,SMILES,IC50 [nM]
1,"[2H]C([2H])([2H])NC(=O)c1nnc(Nc2cc(C#N)ccn2)cc1Nc1nccc(-c2ncn(C)n2)c1OC [Example 13, 6-[(4-cyanopyridin-2-yl)amino]-4-{[3-methoxy-4-(1-methyl-1H-1,2,4-triazol-3-yl)pyridin-2-yl]amino}-N—(^2H3)methylpyridazine-3-carboxamide]",> 10000
2,"[2H]C([2H])([2H])NC(=O)c1nnc(Nc2cc(C)c(F)cn2)cc1Nc1nccc(-c2ncn(C)n2)c1OC [Example 16, 6-[(5-fluoro-4-methylpyridin-2-yl)amino]-4-{[3-methoxy-4-(1-methyl-1H-1,2,4-triazol-3-yl)pyridin-2-yl]amino}-N—(^2H3)methylpyridazine-3-carboxamide]",120
3,"[2H]C([2H])([2H])NC(=O)c1nnc(Nc2cc(CC)ccn2)cc1Nc1nccc(-c2ncn(C)n2)c1OC [Example 17, 6-[(4-ethylpyridin-2-yl)amino]-4-{[3-methoxy-4-(1-methyl-1H-1,2,4-triazol-3-yl)pyridin-2-yl]amino}-N—(^2H3)methylpyridazine-3-carboxamide]",50
4,"[2H]C([2H])([2H])NC(=O)c1nnc(Nc2cc(F)ccn2)cc1Nc1nccc(-c2ncn(C)n2)c1OC [Example 19, 6-[(4-fluoropyridin-2-yl)amino]-4-{[3-methoxy-4-(1-methyl-1H-1,2,4-triazol-3-yl)pyridin-2-yl]amino}-N—(^2H3)methylpyridazine-3-carboxamide]",30
5,"[2H]C([2H])([2H])NC(=O)c1nnc(Nc2nnc(C)s2)cc1Nc1nccc(-c2ncn(C)n2)c1OC [Example 20, 4-{[3-methoxy-4-(1-methyl-1H-1,2,4-triazol-3-yl)pyridin-2-yl]amino}-N—(^2H3)methyl-6-[(5-methyl-1,3,4-thiadiazol-2-yl)amino]pyridazine-3-carboxamide]",1510
6,"[2H]C([2H])([2H])NC(=O)c1nnc(Nc2cc(Cl)ccn2)cc1Nc1nccc(-c2ncn(C)n2)c1OC [Example 21, 6-[(4-chloropyridin-2-yl)amino]-4-{[3-methoxy-4-(1-methyl-1H-1,2,4-triazol-3-yl)pyridin-2-yl]amino}-N—(^2H3)methylpyridazine-3-carboxamide]",30
7,"[2H]C([2H])([2H])NC(=O)c1nnc(Nc2ccc(-n3ccccc3=O)cn2)cc1Nc1nccc(-c2ncn(C)n2)c1OC [Example 24, 4-{[3-methoxy-4-(1-methyl-1H-1,2,4-triazol-3-yl)pyridin-2-yl]amino}-N—(^2H3)methyl-6-({2-oxo-2H-[1,3′-bipyridine]-6′-yl}amino)pyridazine-3-carboxamide]",30
8,"[2H]C([2H])([2H])NC(=O)c1nnc(Nc2cc(C(C)(C)O)ccn2)cc1Nc1nccc(-c2ncn(C)n2)c1OC [Example 25, 6-{[4-(2-hydroxypropan-2-yl)pyridin-2-yl]amino}-4-{[3-methoxy-4-(1-methyl-1H-1,2,4-triazol-3-yl)pyridin-2-yl]amino}-N—(^2H3)methylpyridazine-3-carboxamide]",50
9,"[2H]C([2H])([2H])NC(=O)c1nnc(Nc2ccc(-n3cccc(C(F)(F)F)c3=O)cn2)cc1Nc1nccc(-c2ncn(C)n2)c1OC [Example 26, 4-{[3-methoxy-4-(1-methyl-1H-1,2,4-triazol-3-yl)pyridin-2-yl]amino}-N—(^2H3)methyl-6-{[2-oxo-3-(trifluoromethyl)-2H-[1,3′-bipyridine]-6-yl]amino}pyridazine-3-carboxamide]",30
10,"[2H]C([2H])([2H])NC(=O)c1nnc(Nc2cc(C(F)(F)F)ccn2)cc1Nc1nccc(-c2ncn(C)n2)c1OC [Example 32, 4-{[3-methoxy-4-(1-methyl-1H-1,2,4-triazol-3-yl)pyridin-2-yl]amino}-N—(^2H3)methyl-6-{[4-(trifluoromethyl)pyridin-2-yl]amino}pyridazine-3-carboxamide]",90
11,"[2H]C([2H])([2H])NC(=O)c1nnc(Nc2ccc(C(C)(C)O)cn2)cc1Nc1nccc(-c2ncn(C)n2)c1OC [Example 33, 6-{[5-(2-hydroxypropan-2-yl)pyridin-2-yl]amino}-4-{[3-methoxy-4-(1-methyl-1H-1,2,4-triazol-3-yl)pyridin-2-yl]amino}-N—(^2H3)methylpyridazine-3-carboxamide]",20
12,"[2H]C([2H])([2H])NC(=O)c1nnc(Nc2ccncc2)cc1Nc1nccc(-c2ncn(C)n2)c1OC [Example 35, 4-{[3-methoxy-4-(1-methyl-1H-1,2,4-triazol-3-yl)pyridin-2-yl]amino}-N—(^2H3)methyl-6-[(pyridin-4-yl)amino]pyridazine-3-carboxamide]",200
13,"[2H]C([2H])([2H])NC(=O)c1nnc(Nc2ccc(OCC)nn2)cc1Nc1nccc(-c2ncn(C)n2)c1OC [Example 36, 6-[(6-ethoxypyridazin-3-yl)amino]-4-{[3-methoxy-4-(1-methyl-1H-1,2,4-triazol-3-yl)pyridin-2-yl]amino}-N—(^2H3)methylpyridazine-3-carboxamide]",30
14,"[2H]C([2H])([2H])NC(=O)c1nnc(Nc2ccc(N3CCN(C(C)(C)C)C3=O)cn2)cc1Nc1nccc(-c2ncn(C)n2)c1OC [Example 37, 6-{[5-(3-tert-butyl-2-oxoimidazolidin-1-yl)pyridin-2-yl]amino}-4-{[3-methoxy-4-(1-methyl-1H-1,2,4-triazol-3-yl)pyridin-2-yl]amino}-N—(^2H3)methylpyridazine-3-carboxamide]",130
15,"[2H]C([2H])([2H])NC(=O)c1nnc(Nc2ccc(N3CCOCC3)cn2)cc1Nc1nccc(-c2ncn(C)n2)c1OC [Example 38, 4-{[3-methoxy-4-(1-methyl-1H-1,2,4-triazol-3-yl)pyridin-2-yl]amino}-N—(^2H3)methyl-6-{[5-(morpholin-4-yl)pyridin-2-yl]amino}pyridazine-3-carboxamide]",10
16,"[2H]C([2H])([2H])NC(=O)c1nnc(Nc2cc(F)c(F)cn2)cc1Nc1nccc(-c2ncn(C)n2)c1OC [Example 39, 6-[(4,5-difluoropyridin-2-yl)amino]-4-{[3-methoxy-4-(1-methyl-1H-1,2,4-triazol-3-yl)pyridin-2-yl]amino}-N—(^2H3)methylpyridazine-3-carboxamide]",220
17,"[2H]C([2H])([2H])NC(=O)c1cnc(NC(=O)C2CC2)cc1Nc1nccc(-c2noc(C)n2)c1OC [Example 41, 6-cyclopropaneamido-4-{[3-methoxy-4-(5-methyl-1,2,4-oxadiazol-3-yl)pyridin-2-yl]amino}-N—(^2H3)methylpyridine-3-carboxamide]",30
18,"[2H]C([2H])([2H])NC(=O)c1nnc(Nc2cc(C)ccn2)cc1Nc1nccc(-c2noc(CN3CCOCC3)n2)c1OC [Example 42, 4-((3-methoxy-4-(5-(morpholinomethyl)-1,2,4-oxadiazol-3-yl)pyridin-2-yl)amino)-N-trideuteromethyl-6-((4-methylpyridin-2-yl)amino)pyridazine-3-carboxamide]",580

# Reference: US11597721B2, “Heterocyclic compounds comprising pyridine useful as modulators of IL-12, IL-23 and/or IFNα responses” (BRISTOL-MYERS SQUIBB COMPANY, priority 2018, dated 2023)
